Test system: 935938-334-R-J1-PDC spheroids with HUVEC/MSC, viability
Experiment: Anticancer human tumor 935938-334-R-J1-PDC patient-derived small intestine adenocarcinoma cell line growth inhibition [PI3K]
Conditions: for IC50: curve of first compound; for viability, T/C: stronger effect = lower value
Procedure, shortened: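 High-throughput combination screen: PI3K inhibitors crossed with targeted small molecules on complex spheroids of tumor cells, HUVEC and MSCs at 37 degrees C, 5% CO2. Top concentration was at or near clinical Cmax (otherwise 10 microM), with half-log decrements.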

[1] = second compound 0.0316 µM, first compound 0.0316 µM
[2] = second compound 0.0316 µM, first compound 0.1 µM
[3] = second compound 0.0316 µM, first compound 0.316 µM
[4] = second compound 0.0316 µM, first compound 1 µM
[5] = second compound 0.0316 µM, first compound 3.16 µM
[6] = second compound 0.0316 µM, first compound 10 µM
[7] = second compound 0.1 µM, first compound 0.0316 µM
[8] = second compound 0.1 µM, first compound 0.1 µM
[9] = second compound 0.1 µM, first compound 0.316 µM
[10] = second compound 0.1 µM, first compound 1 µM
[11] = second compound 0.1 µM, first compound 3.16 µM
[12] = second compound 0.1 µM, first compound 10 µM
[13] = second compound 0.316 µM, first compound 0.0316 µM
[14] = second compound 0.316 µM, first compound 0.1 µM
[15] = second compound 0.316 µM, first compound 0.316 µM
[16] = second compound 0.316 µM, first compound 1 µM
[17] = second compound 0.316 µM, first compound 3.16 µM
[18] = second compound 0.316 µM, first compound 10 µM
[19] = second compound 1 µM, first compound 0.0316 µM
[20] = second compound 1 µM, first compound 0.1 µM
[21] = second compound 1 µM, first compound 0.316 µM
[22] = second compound 1 µM, first compound 1 µM
[23] = second compound 1 µM, first compound 3.16 µM
[24] = second compound 1 µM, first compound 10 µM
[25] = second compound 3.16 µM, first compound 0.0316 µM
[26] = second compound 3.16 µM, first compound 0.1 µM
[27] = second compound 3.16 µM, first compound 0.316 µM
[28] = second compound 3.16 µM, first compound 1 µM
[29] = second compound 3.16 µM, first compound 3.16 µM
[30] = second compound 3.16 µM, first compound 10 µM
[31] = second compound 10 µM, first compound 0.0316 µM
[32] = second compound 10 µM, first compound 0.1 µM
[33] = second compound 10 µM, first compound 0.316 µM
[34] = second compound 10 µM, first compound 1 µM
[35] = second compound 10 µM, first compound 3.16 µM
[36] = second compound 10 µM, first compound 10 µM
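Note: compound exposure lasted seven days before viability was read.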
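Throughout, for viability, T/C: percent of vehicle DMSO treated spheroid viability so 100% = untreated.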

`CC1(C)CCC(CN2CCN(c3ccc(C(=O)NS(=O)(=O)c4ccc(NCC5CCOCC5)c([N+](=O)[O-])c4)c(Oc4cnc5[nH]ccc5c4)c3)CC2)=C(c2ccc(Cl)cc2)C1` + CC(Nc1ncnc2nc[nH]c12)c1cc2cccc(Cl)c2c(=O)n1-c1ccccc1 was tested, and the IC50 (second compound 0.0316 µM) was 6.28 µM, the IC50 (second compound 0.1 µM) was 6.66 µM and the IC50 (second compound 0.316 µM) was 6.04 µM. It also gave an IC50 (second compound 1 µM) of 6.82 µM, an IC50 (second compound 3.16 µM) of 6.73 µM and an IC50 (second compound 10 µM) of 5.59 µM. The viability, T/C [1] was 98.3%, the viability, T/C [2] was 93.6% and the viability, T/C [3] was 90.8%. For the same compound, the viability, T/C [4] was 88.8%, the viability, T/C [5] was 89% and the viability, T/C [6] was 23.5%. It also gave a viability, T/C [7] of 98.2%, a viability, T/C [8] of 104% and a viability, T/C [9] of 94.3%. The viability, T/C [10] was 105%, the viability, T/C [11] was 95.1% and the viability, T/C [12] was 25.2%. For the same compound, the viability, T/C [13] was 104%, the viability, T/C [14] was 98.9% and the viability, T/C [15] was 105%. The viability, T/C [16] was 93.8%, the viability, T/C [17] was 86.7% and the viability, T/C [18] was 22.3%. It also gave a viability, T/C [19] of 80.7%, a viability, T/C [20] of 94.1% and a viability, T/C [21] of 69.1%. For the same compound, the viability, T/C [22] was 102%, the viability, T/C [23] was 92.7% and the viability, T/C [24] was 31.2%. For the same compound, the viability, T/C [25] was 92.6%, the viability, T/C [26] was 89.2% and the viability, T/C [27] was 87.1%. The viability, T/C [28] was 93.2%, the viability, T/C [29] was 92.5% and the viability, T/C [30] was 28.4%. It also gave a viability, T/C [31] of 81.7%, a viability, T/C [32] of 61.5% and a viability, T/C [33] of 91.2%. It also gave a viability, T/C [34] of 86.5%, a viability, T/C [35] of 73.4% and a viability, T/C [36] of 26.1%.

With `CCCS(=O)(=O)Nc1ccc(F)c(C(=O)c2c[nH]c3ncc(-c4ccc(Cl)cc4)cc23)c1F` + CC(Nc1ncnc2nc[nH]c12)c1cc2cccc(Cl)c2c(=O)n1-c1ccccc1 the IC50 (second compound 0.0316 µM) was 6.71 µM, the IC50 (second compound 0.1 µM) was 6.81 µM and the IC50 (second compound 0.316 µM) was 6.86 µM. For the same compound, the IC50 (second compound 1 µM) was 6.77 µM, the IC50 (second compound 3.16 µM) was 6.38 µM and the IC50 (second compound 10 µM) was 5.62 µM. It also gave a viability, T/C [1] of 107%, a viability, T/C [2] of 100% and a viability, T/C [3] of 140%. For the same compound, the viability, T/C [4] was 102%, the viability, T/C [5] was 95.2% and the viability, T/C [6] was 26.3%. The viability, T/C [7] was 88.2%, the viability, T/C [8] was 98.7% and the viability, T/C [9] was 95.9%. For the same compound, the viability, T/C [10] was 94%, the viability, T/C [11] was 108% and the viability, T/C [12] was 26.5%. For the same compound, the viability, T/C [13] was 99.8%, the viability, T/C [14] was 94% and the viability, T/C [15] was 111%. The viability, T/C [16] was 110%, the viability, T/C [17] was 96.3% and the viability, T/C [18] was 27%. It also gave a viability, T/C [19] of 97%, a viability, T/C [20] of 105% and a viability, T/C [21] of 109%. For the same compound, the viability, T/C [22] was 118%, the viability, T/C [23] was 91.6% and the viability, T/C [24] was 28.5%. It also gave a viability, T/C [25] of 109%, a viability, T/C [26] of 91.6% and a viability, T/C [27] of 99.9%. It also gave a viability, T/C [28] of 117%, a viability, T/C [29] of 84.3% and a viability, T/C [30] of 28%. For the same compound, the viability, T/C [31] was 91.2%, the viability, T/C [32] was 86.5% and the viability, T/C [33] was 91.6%. The viability, T/C [34] was 97%, the viability, T/C [35] was 78.1% and the viability, T/C [36] was 21.9%.

Compound `C[C@@H](NC(=O)c1ncnc(N)c1Cl)c1ncc(C(=O)Nc2cc(C(F)(F)F)c(Cl)cn2)s1` + CC(Nc1ncnc2nc[nH]c12)c1cc2cccc(Cl)c2c(=O)n1-c1ccccc1 has an IC50 (second compound 0.0316 µM) greater than 10 µM, an IC50 (second compound 0.1 µM) greater than 10 µM and an IC50 (second compound 0.316 µM) greater than 10 µM. For the same compound, the IC50 (second compound 1 µM) was greater than 10 µM, the IC50 (second compound 3.16 µM) was greater than 10 µM and the IC50 (second compound 10 µM) was greater than 10 µM. For the same compound, the viability, T/C [1] was 104%, the viability, T/C [2] was 103% and the viability, T/C [3] was 90.1%. It also gave a viability, T/C [4] of 120%, a viability, T/C [5] of 109% and a viability, T/C [6] of 75.6%. The viability, T/C [7] was 109%, the viability, T/C [8] was 138% and the viability, T/C [9] was 123%. The viability, T/C [10] was 99.8%, the viability, T/C [11] was 98.2% and the viability, T/C [12] was 111%. It also gave a viability, T/C [13] of 123%, a viability, T/C [14] of 84.5% and a viability, T/C [15] of 118%. It also gave a viability, T/C [16] of 127%, a viability, T/C [17] of 98.3% and a viability, T/C [18] of 107%. The viability, T/C [19] was 97.8%, the viability, T/C [20] was 86.6% and the viability, T/C [21] was 126%. The viability, T/C [22] was 95.1%, the viability, T/C [23] was 117% and the viability, T/C [24] was 69.8%. For the same compound, the viability, T/C [25] was 91.8%, the viability, T/C [26] was 116% and the viability, T/C [27] was 109%. It also gave a viability, T/C [28] of 104%, a viability, T/C [29] of 90% and a viability, T/C [30] of 70%. It also gave a viability, T/C [31] of 81.4%, a viability, T/C [32] of 88.5% and a viability, T/C [33] of 98.7%. It also gave a viability, T/C [34] of 92.9%, a viability, T/C [35] of 87.8% and a viability, T/C [36] of 60.8%.

Reference: PubChem BioAssay AID1963966 (Molecular Pharmacology Branch, DTP, NCI, 2024)
